# Reference: patent US20250276993A1, “PSEUDO-DISACCHARIDE COMPOUNDS” (UNIVERSITEIT LEIDEN, priority 2022, published 2025)
# Tests used:
# HPSE = target: T1, HPSE (Homo sapiens, UniProt Q9Y251); test: cABPP Assay 1, recombinant HPSE; type: biochemical; details: 1 h preincubation at 37° C., pH 5.5, 100 nM ABP 7
# T1 sequence (Q9Y251 36-109 limits assumed): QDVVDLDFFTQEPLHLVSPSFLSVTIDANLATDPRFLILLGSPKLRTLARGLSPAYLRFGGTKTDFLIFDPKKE
# T1 sequence (Q9Y251 158-543 limits assumed): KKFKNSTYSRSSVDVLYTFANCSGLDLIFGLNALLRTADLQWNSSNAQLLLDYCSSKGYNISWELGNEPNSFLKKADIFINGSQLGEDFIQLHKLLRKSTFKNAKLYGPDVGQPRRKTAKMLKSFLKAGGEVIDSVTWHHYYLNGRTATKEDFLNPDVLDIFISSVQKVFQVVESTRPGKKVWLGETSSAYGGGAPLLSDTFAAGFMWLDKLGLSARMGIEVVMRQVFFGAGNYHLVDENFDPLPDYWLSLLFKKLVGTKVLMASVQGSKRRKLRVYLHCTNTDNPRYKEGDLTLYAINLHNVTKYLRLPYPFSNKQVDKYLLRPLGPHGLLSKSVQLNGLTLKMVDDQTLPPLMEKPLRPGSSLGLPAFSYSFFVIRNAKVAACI
# GUSB = target: T2, GUSB (Homo sapiens, UniProt P08236); test: cABPP Assay 2, platelet lysates, GUSB; type: biochemical; details: preincubation with inhibitor
# T2 construct: Platelet lysates contain complex mixtures of overlapping enzyme activities, including both endo- and exo-β-glucuronidases HPSE and GUSB; endogenous in cells; host or cells: human platelet lysates
# T2 sequence (P08236 23-651): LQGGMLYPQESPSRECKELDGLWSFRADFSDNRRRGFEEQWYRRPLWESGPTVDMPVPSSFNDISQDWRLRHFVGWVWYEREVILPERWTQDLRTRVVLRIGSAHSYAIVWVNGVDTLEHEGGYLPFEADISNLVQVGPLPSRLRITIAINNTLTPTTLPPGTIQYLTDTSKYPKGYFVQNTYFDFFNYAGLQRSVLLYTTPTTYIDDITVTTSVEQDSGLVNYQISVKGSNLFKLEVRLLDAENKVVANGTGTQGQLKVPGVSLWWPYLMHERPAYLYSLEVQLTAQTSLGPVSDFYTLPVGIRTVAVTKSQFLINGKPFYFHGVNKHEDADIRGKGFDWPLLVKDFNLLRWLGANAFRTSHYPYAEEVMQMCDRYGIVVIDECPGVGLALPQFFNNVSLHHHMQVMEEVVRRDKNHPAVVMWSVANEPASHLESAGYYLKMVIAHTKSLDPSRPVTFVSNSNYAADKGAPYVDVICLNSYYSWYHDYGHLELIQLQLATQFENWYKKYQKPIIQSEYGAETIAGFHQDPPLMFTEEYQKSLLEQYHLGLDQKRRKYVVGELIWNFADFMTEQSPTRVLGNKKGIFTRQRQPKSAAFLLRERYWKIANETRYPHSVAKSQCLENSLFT
# Method: For further competitive ABPP studies, a working protein mixture was prepared by mixing the platelet lysates (87.5 μL), buffer (pH 5.0, 150 mM, 157.5 μL) and 3 M NaCl solution (35 μL). The enzymatic reactions were carried out at a constant concentration of read-out 7 (100 nM, final). For each inhibitor 2, 12 and 13, triplicate sets of ten 0.5 mL low protein binding Eppendorf tubes were prepared. Working solutions of each inhibitor (1% DMSO (w/v), 5 μL) in a range of ten concentrations (100, 50, 25, 12.5, 6.3, 3.1, 1.6, 0.8, 0.4, 0 μM) were prepared with MilliQ water and kept on ice. The working protein mixture (8 μL) was added in each protein low binding 0.5 mL Eppendorf tube, and 1 μL of inhibitor solution was added while on ice.
# Further cABPP studies were undertaken using platelet lysates to provide a more physiologically realistic environment. Platelet lysates contain complex mixtures of overlapping enzyme activities, including both endo- and exo-β-glucuronidases HPSE and GUSB respectively, thus provide a challenging environment to test inhibitor specificity.
# CAG human myeloma cells = test: CAG myeloma metastasis model; type: in vivo, NOD/SCID mice
# Method: CAG myeloma—Luciferase-labeled CAG human myeloma cells (3×10^6) were injected into the tail vein of NOD/SCID mice. 3-5 days after cell inoculation, mice were randomly assigned to 4 cohorts (6 mice each) receiving: (a) vehicle, (b) compound 2 (i.p. 300 nmol/day), (c) bortezomib (0.5 mg/kg twice weekly) or (d) 2 plus bortezomib (dosing as for individual compounds). Tumor development was inspected (every 7 days) by IVIS imaging as detailed above. Tumor burden was quantified using Living Image software. Plots and statistical analyses were carried out in Prism 9 (Graphpad software).
# U87 glioblastoma cells = test: Matrigel invasion assay; type: cell-based, human; details: 20 μM inhibitor, 4 h
# Method: The Matrigel invasion assay was used to assess the effects of the compounds of the invention on cancer cell aggression. This is an in cellulo model of cell invasion through a HSPG rich basement membrane. The ability of cells to migrate through transwell inserts coated with Matrigel (an ECM secretion from Engelbreth-Holm-Swarm mouse sarcoma cells) correlates well with their in vivo invasive potential (Hall et al., Methods Mol Biol, 1070, 1-11 (2014)).
# 1×10^5 U87 cells in 200 μL DMEM media (without serum) were seeded onto the top chamber of a Matrigel-coated Boyden transwell filter, alongside 20 μM HPSE inhibitor (or PBS control). Cells in the upper chamber were separated by Matrigel from a lower chamber containing 600 μL DMEM, supplemented with 10% FBS. Plates were incubated at 37° C. for 4 h, before fixing cells in 4% (v/v) paraformaldehyde, and staining with 0.5% (w/v) crystal violet. Matrigel and non-migrating cells in the upper side of the Boyden filter were removed by swabbing, then invading cells on the bottom side of the transwell filter imaged for analysis. 10 randomly selected microscopic fields were recorded, and cell invasion calculated using ImageJ, by quantitating the percentage of the field stained by crystal violet. Graphs were plotted using RStudio.
# The Matrigel invasion assay was used to assess the effects of the compounds of the invention on cancer cell aggression. […]
smiles,measurement,setting,value
"CC(=O)NC1C(O)[C@H](O)C(CO)O[C@@H]1O[C@H]1C(O)C(O)[C@@H]2OC2C1C(=O)O (stereo partly drawn) [Compound 2, 4-O-(2-N-acetyl-2-deoxy-D-glucopyranosyl)-glucurono-cyclophellitol]",HPSE inhibition (abrogation of labelling by ABP 7),HPSE,inhibited HPSE at nanomolar concentrations
same,effect on GUS signals,GUSB,without altering GUS signals
same,metastatic burden (CAG myeloma),"CAG human myeloma cells; 2: i.p. 300 nmol/day, bortezomib 0.5 mg/kg twice weekly, IVIS imaging",marked reduction in metastatic burden
same,efficacy at prolonged treatment (CAG myeloma),CAG human myeloma cells; 33 day timepoint,lower efficacy following prolonged treatment
same,Matrigel invasion,U87 glioblastoma cells,significantly reduced Matrigel invasion
